Measured values as given in PubChem BioAssay AID248 (DTP/NCI, 2004).
Where “and” joins values, the source holds several entries; their conditions need not be identical. Equal entries are not always repeated. Toxic doses and inconclusive results are not listed. No stated cut-off is given here; in the data, active means T/C of 150% or more; inactive means T/C below 125%.

System: L1210 leukemia ip in BDF1 mice, survival T/C
Assay: NCI In Vivo Anticancer Drug Screen. Data for tumor model L1210 Leukemia (intraperitoneal) in B6D2F1 (BDF1) mice
Conditions: endpoint: mean survival time, higher = longer survival
Outline: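 Each compound was tested against a transplantable tumor grown in mice. The endpoint was survival, with treated animals benchmarked against vehicle controls as a simple ratio.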

[1] = dose: 100.0 mg/kg/injection, schedule: Q01DX009 (ip), vehicle: Klucel (hydroxypropylcellulose) (HPC)
[2] = dose: 100.0 mg/kg/injection, schedule: Q04DX003 (ip), vehicle: Klucel (hydroxypropylcellulose) (HPC)
[3] = dose: 200.0 mg/kg/injection, schedule: Q01DX009 (ip), vehicle: Klucel (hydroxypropylcellulose) (HPC)
[4] = dose: 200.0 mg/kg/injection, schedule: Q04DX003 (ip), vehicle: Klucel (hydroxypropylcellulose) (HPC)
[5] = dose: 400.0 mg/kg/injection, schedule: Q01DX009 (ip), vehicle: Klucel (hydroxypropylcellulose) (HPC)
[6] = dose: 400.0 mg/kg/injection, schedule: Q04DX003 (ip), vehicle: Klucel (hydroxypropylcellulose) (HPC)
[7] = dose: 50.0 mg/kg/injection, schedule: Q01DX009 (ip), vehicle: Klucel (hydroxypropylcellulose) (HPC)
[8] = dose: 100.0 mg/kg/injection, schedule: Q01DX001 (ip), vehicle: other
[9] = dose: 200.0 mg/kg/injection, schedule: Q01DX001 (ip), vehicle: other
[10] = dose: 400.0 mg/kg/injection, schedule: Q01DX001 (ip), vehicle: other
[11] = dose: 100.0 mg/kg/injection, schedule: Q01DX001 (ip), vehicle: saline
[12] = dose: 200.0 mg/kg/injection, schedule: Q01DX001 (ip), vehicle: saline
[13] = dose: 400.0 mg/kg/injection, schedule: Q01DX001 (ip), vehicle: saline
[14] = dose: 100.0 mg/kg/injection, schedule: Q01DX001 (ip), vehicle: carboxymethylcellulose (CMC)
[15] = dose: 200.0 mg/kg/injection, schedule: Q01DX001 (ip), vehicle: carboxymethylcellulose (CMC)
[16] = dose: 400.0 mg/kg/injection, schedule: Q01DX001 (ip), vehicle: carboxymethylcellulose (CMC)

Measured: T/C

CC(C)CCNc1ncnc2nc[nH]c12
inactive: dose: 75.0 mg/kg/injection, schedule: Q01DX001 (ip), vehicle: saline 90 % of control | dose: 150.0 mg/kg/injection, schedule: Q01DX001 (ip), vehicle: saline 92 % of control

CCC(=O)/C=C/c1ccc(Cl)cc1
inactive: [1] 98 % of control | [2] 98 % of control | [3] 97 % of control | [4] 104 % of control | [5] 97 % of control | [6] 102 % of control

O=C1C=CC(=O)C(SCC(O)CO)=C1 (stereo not drawn)
inactive: dose: 9.5 mg/kg/injection, schedule: Q01DX001 (ip), vehicle: other 94 % of control | dose: 19.0 mg/kg/injection, schedule: Q01DX001 (ip), vehicle: other 95 % of control | dose: 38.0 mg/kg/injection, schedule: Q01DX001 (ip), vehicle: other 100 % of control

Nc1cc2ccncc2c2ccccc12
inactive: dose: 50.0 mg/kg/injection, schedule: Q01DX009 (ip), vehicle: saline sonified 98 % of control | dose: 100.0 mg/kg/injection, schedule: Q01DX009 (ip), vehicle: saline sonified 104 % of control | [2] 97 % of control | dose: 200.0 mg/kg/injection, schedule: Q01DX009 (ip), vehicle: saline sonified 106 % of control | [4] 108 % of control

OCc1cccs1
inactive: [1] 108 % of control | [2] 97 % of control | [3] 94 % of control | [4] 97 % of control | [5] 103 % of control | [6] 97 % of control

Cc1c(NC(=O)Nc2cccc(C(F)(F)F)c2)c(=O)n(-c2ccccc2)n1C
inactive: dose: 25.0 mg/kg/injection, schedule: Q01DX009 (ip), vehicle: Klucel (hydroxypropylcellulose) (HPC) 88 % of control | [7] 86 % of control | [3] 96 % of control

COc1ccc(N2C(=O)C3C(C2=O)C2(Cl)C(Cl)=C(Cl)C3(Cl)C2(Cl)Cl)c(OC)c1 (stereo not drawn)
inactive: [1] 90 % of control | [2] 101 % of control | [3] 95 % of control | [4] 104 % of control | [5] 93 % of control | [6] 92 % of control

NC(=O)CNC(=O)CN1C(=O)c2ccccc2C1=O
inactive: [8] 103 % of control | [9] 103 % of control | [10] 103 % of control

COC(=O)c1ccc2c3c(ccc(C(=O)OC)c13)C=C2
inactive: [11] 102 % of control | [12] 94 % of control | [13] 95 % of control

COc1ccc(NP2(=O)OCC(C)(N)CO2)cc1 (stereo not drawn)
inactive: [14] 91 % of control | [15] 96 % of control | [16] 91 % of control

C/C(=C\Cl)COC(C)(C)C
inactive: dose: 100.0 mg/kg/injection, schedule: Q01DX001 (ip), vehicle: saline with Tween-80 94 % of control | dose: 200.0 mg/kg/injection, schedule: Q01DX001 (ip), vehicle: saline with Tween-80 94 % of control

O=C(Nc1ccccc1)Nc1ccc(Cl)cc1Cl
inactive: dose: 12.5 mg/kg/injection, schedule: Q04DX002 (ip), vehicle: other 107 % of control | dose: 25.0 mg/kg/injection, schedule: Q04DX002 (ip), vehicle: other 93 % of control | dose: 50.0 mg/kg/injection, schedule: Q04DX002 (ip), vehicle: other 90 % of control | dose: 100.0 mg/kg/injection, schedule: Q04DX002 (ip), vehicle: other 96 % of control

S=C(c1ccccc1)N(c1ccccc1)C1CCCCC1
inactive: dose: 100.0 mg/kg/injection, schedule: Q04DX003 (ip), vehicle: gum acacia 91 % of control | dose: 200.0 mg/kg/injection, schedule: Q04DX003 (ip), vehicle: gum acacia 88 % of control | dose: 400.0 mg/kg/injection, schedule: Q04DX003 (ip), vehicle: gum acacia 88 % of control

CCCC1OC(C)C(C)O1 (stereo not drawn)
inactive: [7] 101 % of control | [1] 101 % of control | [3] 101 % of control

COc1ccc(O)c(/C=N/NC(N)=S)c1
inactive: [1] 100 % of control | [2] 115 % of control | [3] 104 % of control | [4] 96 % of control | [5] 100 % of control | [6] 97 % of control

CCS(=O)(=O)N1CCCCC1C (stereo not drawn)
inactive: dose: 100.0 mg/kg/injection, schedule: Q04DX002 (ip), vehicle: saline with Tween-80 93 % of control | dose: 200.0 mg/kg/injection, schedule: Q04DX002 (ip), vehicle: saline with Tween-80 99 % of control | dose: 400.0 mg/kg/injection, schedule: Q04DX002 (ip), vehicle: saline with Tween-80 96 % of control

O=C(Nc1ccccc1)OC(C[N+](=O)[O-])C(Cl)(Cl)Cl (stereo not drawn)
inactive: dose: 75.0 mg/kg/injection, schedule: Q01DX001 (ip), vehicle: carboxymethylcellulose (CMC) 98 % of control

O=C(O)C1CC(Br)C(Br)CC1C(=O)Nc1cccc2ccccc12 (stereo not drawn)
inactive: dose: 100.0 mg/kg/injection, schedule: Q04DX002 (ip), vehicle: Klucel (hydroxypropylcellulose) (HPC) 100 % of control | dose: 200.0 mg/kg/injection, schedule: Q04DX002 (ip), vehicle: Klucel (hydroxypropylcellulose) (HPC) 92 % of control | dose: 400.0 mg/kg/injection, schedule: Q04DX002 (ip), vehicle: Klucel (hydroxypropylcellulose) (HPC) 95 % of control

C=C(C)C#CC(O)(C(=O)OCC)C1CCCCC1 (stereo not drawn)
inactive: [8] 98 % of control | [9] 109 % of control | [10] 102 % of control

OCCOCC(F)(F)F
inactive: [11] 97 % of control | [12] 100 % of control | [13] 105 % of control | dose: 400.0 mg/kg/injection, schedule: Q01DX015 (ip), vehicle: saline 96 % of control | dose: 800.0 mg/kg/injection, schedule: Q01DX001 (ip), vehicle: saline 105 % of control | dose: 800.0 mg/kg/injection, schedule: Q01DX015 (ip), vehicle: saline 101 % of control | dose: 1600.0 mg/kg/injection, schedule: Q01DX001 (ip), vehicle: saline 108 % of control

COc1ccc(Cc2ccc3[nH]c(=O)cc(C)c3c2)cc1S(=O)(=O)O
inactive: [11] 104 % of control | [12] 105 % of control | [13] 94 % of control

Cc1ccc(S(=O)(=O)C(Cl)(Cl)Cl)cc1
inactive: dose: 100.0 mg/kg/injection, schedule: Q01DX001 (ip), vehicle: Klucel (hydroxypropylcellulose) (HPC) 96 % of control | [1] 97 % of control | dose: 200.0 mg/kg/injection, schedule: Q01DX001 (ip), vehicle: Klucel (hydroxypropylcellulose) (HPC) 96 % of control | [3] 104 % of control | dose: 400.0 mg/kg/injection, schedule: Q01DX001 (ip), vehicle: Klucel (hydroxypropylcellulose) (HPC) 102 % of control | [5] 104 % of control

NNc1ncnc(SCc2ccccc2)c1N
inactive: dose: 50.0 mg/kg/injection, schedule: Q01DX001 (ip), vehicle: carboxymethylcellulose (CMC) 93 % of control | [14] 98 % of control | [15] 89 % of control | [16] 89 % of control

NC(=O)N1C(=O)CC(Sc2ccc(Cl)cc2)C1=O (stereo not drawn)
inactive: [14] 97 % of control | [15] 100 % of control | [16] 105 % of control

CCOC(=O)N1C=Cn2c(cnc2C)C1O (stereo not drawn)
inactive: dose: 50.0 mg/kg/injection, schedule: Q01DX009 (ip), vehicle: saline 94 % of control | dose: 100.0 mg/kg/injection, schedule: Q01DX009 (ip), vehicle: saline 94 % of control | dose: 100.0 mg/kg/injection, schedule: Q01DX009 (ip), vehicle: water 102 % of control | dose: 100.0 mg/kg/injection, schedule: Q04DX003 (ip), vehicle: saline 102 % of control | dose: 200.0 mg/kg/injection, schedule: Q01DX009 (ip), vehicle: saline 100 % of control and 91 % of control | dose: 200.0 mg/kg/injection, schedule: Q01DX009 (ip), vehicle: water 90 % of control | dose: 200.0 mg/kg/injection, schedule: Q04DX003 (ip), vehicle: saline 109 % of control | dose: 400.0 mg/kg/injection, schedule: Q01DX009 (ip), vehicle: water 93 % of control | dose: 400.0 mg/kg/injection, schedule: Q04DX003 (ip), vehicle: saline 107 % of control

NNC(=O)c1cc(Cl)ccn1
inactive: dose: 100.0 mg/kg/injection, schedule: Q04DX003 (ip), vehicle: saline with Tween-80 96 % of control | dose: 200.0 mg/kg/injection, schedule: Q04DX003 (ip), vehicle: saline with Tween-80 102 % of control | dose: 400.0 mg/kg/injection, schedule: Q04DX003 (ip), vehicle: saline with Tween-80 98 % of control
